As usually defined, the pIC50 is −log10 of the IC50, conventionally taken in molar units. Lower therefore signals a high IC50.

pIC50: −log10 of the molar value.

The target in this test is Acrosin (Homo sapiens, UniProt P10323). Kind of test: Inhibition of human acrosin using N-alpha-benzoyl-DL-arginine para-nitroanilide-HCl as substrate after 3 hrs by spectrophotometry.
Sequence of Acrosin (P10323 20-42 limits assumed): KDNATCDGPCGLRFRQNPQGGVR
Sequence of Acrosin (P10323 43-343 limits assumed): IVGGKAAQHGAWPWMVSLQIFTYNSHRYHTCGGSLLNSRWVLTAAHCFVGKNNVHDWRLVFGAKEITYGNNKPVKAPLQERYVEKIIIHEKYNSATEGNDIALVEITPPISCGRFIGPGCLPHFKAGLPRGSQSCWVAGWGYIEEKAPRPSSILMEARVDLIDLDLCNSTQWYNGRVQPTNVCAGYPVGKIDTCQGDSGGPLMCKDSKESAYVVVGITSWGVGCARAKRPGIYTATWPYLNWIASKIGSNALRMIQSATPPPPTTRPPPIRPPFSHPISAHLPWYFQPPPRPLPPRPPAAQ
Compound `CCCC(=O)Nc1ccc(-c2cc(C(=O)OCC)[nH]n2)cc1` had a negative-log IC50 (pIC50) of 1.77.

Take `CCOC(=O)c1cc(-c2ccc(NC(C)=O)cc2)[nH]n1`: the negative-log IC50 (pIC50) is 1.64.

For `CCOC(=O)c1cc(-c2ccc(NC(=O)c3ccc(F)cc3)cc2)[nH]n1`, the negative-log IC50 (pIC50) was 2.62.

The compound `CCOC(=O)c1cc(-c2ccc(NC(=O)c3c(Cl)cccc3Cl)cc2)n[nH]1` had a pIC50 of 2.32.

In the case of `CCOC(=O)c1cc(-c2ccc(NC(=O)CC)cc2)[nH]n1`, the negative-log IC50 (pIC50) was 1.85.

Turning to `CCOC(=O)c1cc(-c2ccc(NC(=O)c3ccccc3Br)cc2)n[nH]1`, the pIC50 is 2.62.

In turn, `CCOC(=O)c1cc(-c2ccc(NC(=O)c3ccc(C)cc3)cc2)n[nH]1` gave a negative-log IC50 (pIC50) of 1.46.

Take `CCCCC(=O)Nc1ccc(-c2cc(C(=O)OCC)n[nH]2)cc1`: the negative-log IC50 (pIC50) was 1.14.

In turn, `CCOC(=O)c1cc(-c2ccc(NC(=O)c3ccc(OC)cc3)cc2)n[nH]1` gave a negative-log IC50 (pIC50) of 3.10.

As for `CCOC(=O)c1cc(-c2ccc(NC(=O)c3ccccc3Cl)cc2)n[nH]1`, the negative-log IC50 (pIC50) was 3.96.

In turn, `CCOC(=O)c1cc(-c2ccc(NC(=O)CCCC(=O)O)cc2)n[nH]1` showed a negative logarithm of the IC50 (pIC50) of 1.76.

Compound `CCOC(=O)c1cc(-c2ccc(NC(=O)c3ccccc3)cc2)n[nH]1` had a negative-log IC50 (pIC50) of 2.10.

For the compound `CCOC(=O)c1cc(-c2ccc(NS(=O)(=O)c3ccc(C)cc3)cc2)[nH]n1`, the pIC50 was 4.49.

Compound `CCOC(=O)c1cc(-c2ccc(NC(=O)c3ccc(CCl)cc3)cc2)n[nH]1` showed a negative-log IC50 (pIC50) of 2.48.

For the compound `CCOC(=O)c1cc(-c2ccc(NC(=O)c3c(F)cccc3F)cc2)[nH]n1`, the pIC50 was 2.40.

Turning to `CCOC(=O)c1cc(-c2ccc(NC(=O)CCCl)cc2)[nH]n1`, the negative-log IC50 (pIC50) was 2.24.

`CCOC(=O)c1cc(-c2ccc(NC(=O)C(CC)c3ccccc3)cc2)n[nH]1` (configuration not stated) gave a negative-log IC50 (pIC50) of 2.48.

In the case of `CCOC(=O)c1cc(-c2ccc(NC(=O)Cc3ccccc3)cc2)[nH]n1`, the negative logarithm of the IC50 (pIC50) was 3.33.

In the case of `CCOC(=O)c1cc(-c2ccc(NC(=O)CCC(=O)O)cc2)[nH]n1`, the negative-log IC50 (pIC50) was 2.03.

`CCOC(=O)c1cc(-c2ccc(NC(=O)C(F)(F)F)cc2)[nH]n1` had a negative logarithm of the IC50 (pIC50) of 2.10.

For `CCOC(=O)c1cc(-c2ccc(NC(=O)c3ccc(Cl)cc3Cl)cc2)[nH]n1`, the pIC50 is 3.36.

Turning to `CCOC(=O)c1cc(-c2ccc(NC(=O)c3ccc(Cl)cc3)cc2)n[nH]1`, the pIC50 is 2.48.

Source of the values: BindingDB's records for doi:10.1016/j.bmcl.2011.07.110 (Second Military Medical University, 2011).
